Experimental data from patent publication US11414374B2, “Crystalline forms of vilanterol trifenatate and processes for their preparation” (Hovione Scientia Limited, priority 2017, dated 2022).
One block for each molecule: values may come before it.

What was measured:
Assay type in all cases: physicochemical
[1] = TGA / TGA-EGA thermogravimetric analysis with evolved gas analysis; details: for EGA: evolved solvent identified
Description: The analysis was carried out using the Mettler Toledo TGA/DSC1. The sample was weighed in an aluminum pan hermetically sealed with an aluminum pierced cover. The analysis was performed heating the sample from 25° C. to 320° C. at 10° C./min. TGA-FTIR coupled with Thermo Nicoled is 10 spectometer. The analysis was carried out using the mettler toledo TGA/DSC1. The sample was weighed in an aluminum pan hermetically sealed with an aluminum pierced cover. The analysis was performed heating the sample from 25° C. to 320° C. at 10° C./min. The evolved gas is compared with ft-ir spectra database for identification.

[2] = DSC - differential scanning calorimetry; details: for DSC (onset) endo. degradation: endothermic event: degradation; for DSC (onset) endo. solvent loss + melting: endothermic event: solvent loss + melting (Form 6: + Form 2 melting; Form 14: + Form 3 melting); for DSC (onset) endo. solvent loss: endothermic event: solvent loss
Description: The analysis was carried out using a DSC Q200 TA instruments equipped with a refrigerator cooling system (RCS40) and autosampler. The sample was weighed in an aluminum hermetic pan with pinhole. The analysis was performed heating the sample from 25° C. to 350° C. at 10° C./min.

[3] = Stability test (exposed sample 16 h), form by XRPD; details: resulting form
[4] = Stability test (sealed vial 18 h), form by XRPD; details: resulting form
[5] = Stability test (60° C. 75% RH-3 d), form by XRPD; details: resulting form
[6] = Storage stability of exposed powder at 25° C. and 60% RH for seven days, compared by XRPD; details: 25° C. 60% RH, 7 d, resulting form
Description: Approximately 30 mg of exposed powder of comparative form 1 and new forms II and III, respectively, were stored at 25′C and 60% RH for seven days. Each powder was then analyzed by XRPD and its diffraction pattern was compared with that of untreated sample.

[7] = XRPD after Grinding; details: resulting form after grinding
[8] = Dynamic vapor sorption (DVS) analysis / hygroscopicity (EP 7.0 classification); details: for Hygroscopically (DVS): DVS hygroscopicity class; for XRPD after DVS: resulting form after DVS
Description: The hygroscopicity value is directly obtained from the sorption row at 80% RH, cycle 1.
Hygroscopicity of a sample of each of new form II and comparative form I was determined using the protocol provided below in conditions of 80% RH and 25° C.
The sample was subjected to DVS measuring using SMS-DVS intrinsic. The kinetic moisture sorption measurement was performed at 25° C. and in a RH % range described in the following: • From 40% RH to 90% RH • Form 90% RH to 0% RH • From 0% RH to 90% RH • From 90% RH to 0% RH
The sample was analyzed by XRPD after the analysis.
The hygroscopicity was calculated using the following equation: % Weight Change=[(W2−W1)/W1]*100 W1: weight of sample at the start of the experiment (25° C. and 40% RH) W2: weight of sample at 25° C. and 80% RH in the first absorption cycle

EGA ([1]; listed as Form 9): Nitromethane
DSC (onset) endo. degradation ([2]; listed as Form 9): endo. 188 °C
DSC (onset) endo. solvent loss + melting ([2]; listed as Form 9): endo. 100 °C solvent
DSC (onset) endo. solvent loss ([2]; listed as Form 9): endo. 68 °C solvent loss
Stability test (exposed sample 16 h) ([3]; listed as Form 9): Form 9
Stability test (sealed vial 18 h) ([4]; listed as Form 9): Form 9
Stability test (60° C. 75% RH-3 d) ([5]; listed as Form 9): Partial conversion
Stability test (25° C. 60% RH-7 d) ([6]; listed as Form 9): Form 9
XRPD after Grinding ([7]; listed as Form 9): Amorphous
Hygroscopically (DVS) ([8]; listed as Form 9): Slightly
XRPD after DVS ([8]; listed as Form 9): Low crystallinity
SMILES: OCc1cc([C@@H](O)CNCCCCCCOCCOCc2c(Cl)cccc2Cl)ccc1O [form IX, vilanterol trifenatate]

EGA ([1]; listed as Form 8): Anisole
TGA overall weight loss ([1]; overall loss of the named solvent(s), listed as Form 8): of approx.. 68% w/w
DSC (onset) endo. degradation ([2]; listed as Form 8): endo. 191 °C
DSC (onset) endo. solvent loss + melting ([2]; listed as Form 8): endo. 136 °C solvent
DSC (onset) endo. solvent loss ([2]; listed as Form 8): endo. 66 °C solvent loss
Stability test (exposed sample 16 h) ([3]; listed as Form 8): Form 8
Stability test (sealed vial 18 h) ([4]; listed as Form 8): Form 8
Stability test (60° C. 75% RH-3 d) ([5]; listed as Form 8): Partial conversion
Stability test (25° C. 60% RH-7 d) ([6]; listed as Form 8): Strong crystallinity
XRPD after Grinding ([7]; listed as Form 8): Strong crystallinity
Hygroscopically (DVS) ([8]; listed as Form 8): Not hygroscopic
XRPD after DVS ([8]; listed as Form 8): Form 8
SMILES: OCc1cc([C@@H](O)CNCCCCCCOCCOCc2c(Cl)cccc2Cl)ccc1O [form VIII, vilanterol trifenatate]
